Legend:
ACVRL1 = target: T1, ACVRL1 (Homo sapiens, UniProt P37023); experiment: KinomeScan; format: binding; conditions: read-out: % control
T1 construct: purchased DiscoveRx KINOMEscan

ZAP70 = target: T2, ZAP70 (Homo sapiens, UniProt P43403); experiment: KinomeScan; format: binding; conditions: read-out: % control
T2 construct: purchased DiscoveRx KINOMEscan

[1] = test system: EGFR Y1068 phosphorylation in BaF3-TEL-EGFR cells; experiment: EGFR Y1068 auto-phosphorylation in transformed BaF3 cells; conditions: Mus musculus, BaF3, 4 h, read-out: EC50, phosphorylation of EGFR Y1068
PRKCQ = target: T3, PRKCQ (Homo sapiens, UniProt Q04759); experiment: KinomeScan; format: binding; conditions: read-out: % control
T3 construct: purchased DiscoveRx KINOMEscan

MEK3 = target: T4, MEK3 (Homo sapiens, UniProt P46734); experiment: KinomeScan; format: binding; conditions: read-out: % control
T4 construct: purchased DiscoveRx KINOMEscan

MELK = target: T5, MELK (Homo sapiens, UniProt Q14680); experiment: KinomeScan; format: binding; conditions: read-out: % control
T5 construct: purchased DiscoveRx KINOMEscan

FLT3(D835H) = target: T6, FLT3(D835H) (Homo sapiens, UniProt P36888, D835H); experiment: KinomeScan; format: binding; conditions: read-out: % control
T6 construct: purchased DiscoveRx KINOMEscan

CHO = experiment: Anti-proliferation, normal cells (CellTiter-Glo); conditions: Cricetulus griseus, 72 h
Procedure: Cells were grown in 96-well culture plates (2500-3000/well). For adherent cell lines, compounds of various concentrations were added into the plates after cells were cultured for 12 hours. Cell proliferation was determined after treatment with compounds for 72 hours. Cell viability was measured using the CellTiter–Glo assay (Promega, USA) according to the manufacturer's instructions, and luminescence was measured in a multi-label reader (Envision, PerkinElmer, USA). Data were normalized to control groups (DMSO) and represented by the mean of three independent measurements with standard error <20%. GI50 values were calculated using Prism 5.0 (GraphPad Software, San Diego, CA).

PAK1 = target: T7, PAK1 (Homo sapiens, UniProt Q13153); experiment: KinomeScan; format: binding; conditions: read-out: % control
T7 construct: purchased DiscoveRx KINOMEscan

SRMS = target: T8, SRMS (Homo sapiens, UniProt Q9H3Y6); experiment: KinomeScan; format: binding; conditions: read-out: % control
T8 construct: purchased DiscoveRx KINOMEscan

PIK3CD = target: T9, PIK3CD (Homo sapiens, UniProt O00329); experiment: KinomeScan; format: binding; conditions: read-out: % control
T9 construct: purchased DiscoveRx KINOMEscan

MLK1 = target: T10, MLK1 (Homo sapiens, UniProt P80192); experiment: KinomeScan; format: binding; conditions: read-out: % control
T10 construct: purchased DiscoveRx KINOMEscan

MYLK2 = target: T11, MYLK2 (Homo sapiens, UniProt Q9H1R3); experiment: KinomeScan; format: binding; conditions: read-out: % control
T11 construct: purchased DiscoveRx KINOMEscan

PIKFYVE = target: T12, PIKFYVE (Homo sapiens, UniProt Q9Y2I7); experiment: KinomeScan; format: binding; conditions: read-out: % control
T12 construct: purchased DiscoveRx KINOMEscan

JNK2 = target: T13, JNK2 (Homo sapiens, UniProt P45984); experiment: KinomeScan; format: binding; conditions: read-out: % control
T13 construct: purchased DiscoveRx KINOMEscan

[2] = target: T14, ABL1(F317I)-phosphorylated (Homo sapiens, UniProt P00519, F317I); experiment: KinomeScan; format: binding; conditions: read-out: % control
T14 construct: purchased DiscoveRx KINOMEscan

LRRK2(G2019S) = target: T15, LRRK2(G2019S) (Homo sapiens, UniProt Q5S007, G2019S); experiment: KinomeScan; format: binding; conditions: read-out: % control
T15 construct: purchased DiscoveRx KINOMEscan

TAK1 = target: T16, TAK1 (Homo sapiens, UniProt O43318); experiment: KinomeScan; format: binding; conditions: read-out: % control
T16 construct: purchased DiscoveRx KINOMEscan

RAF1 = target: T17, RAF1 (Homo sapiens, UniProt P04049); experiment: KinomeScan; format: binding; conditions: read-out: % control
T17 construct: purchased DiscoveRx KINOMEscan

TRPM6 = target: T18, TRPM6 (Homo sapiens, UniProt Q9BX84); experiment: KinomeScan; format: binding; conditions: read-out: % control
T18 construct: purchased DiscoveRx KINOMEscan

FRK = target: T19, FRK (Homo sapiens, UniProt P42685); experiment: KinomeScan; format: binding; conditions: read-out: % control
T19 construct: purchased DiscoveRx KINOMEscan

MINK = target: T20, MINK (Homo sapiens, UniProt Q8N4C8); experiment: KinomeScan; format: binding; conditions: read-out: % control
T20 construct: purchased DiscoveRx KINOMEscan

MLK3 = target: T21, MLK3 (Homo sapiens, UniProt Q16584); experiment: KinomeScan; format: binding; conditions: read-out: % control
T21 construct: purchased DiscoveRx KINOMEscan
T21 sequence (Q16584 whole entry): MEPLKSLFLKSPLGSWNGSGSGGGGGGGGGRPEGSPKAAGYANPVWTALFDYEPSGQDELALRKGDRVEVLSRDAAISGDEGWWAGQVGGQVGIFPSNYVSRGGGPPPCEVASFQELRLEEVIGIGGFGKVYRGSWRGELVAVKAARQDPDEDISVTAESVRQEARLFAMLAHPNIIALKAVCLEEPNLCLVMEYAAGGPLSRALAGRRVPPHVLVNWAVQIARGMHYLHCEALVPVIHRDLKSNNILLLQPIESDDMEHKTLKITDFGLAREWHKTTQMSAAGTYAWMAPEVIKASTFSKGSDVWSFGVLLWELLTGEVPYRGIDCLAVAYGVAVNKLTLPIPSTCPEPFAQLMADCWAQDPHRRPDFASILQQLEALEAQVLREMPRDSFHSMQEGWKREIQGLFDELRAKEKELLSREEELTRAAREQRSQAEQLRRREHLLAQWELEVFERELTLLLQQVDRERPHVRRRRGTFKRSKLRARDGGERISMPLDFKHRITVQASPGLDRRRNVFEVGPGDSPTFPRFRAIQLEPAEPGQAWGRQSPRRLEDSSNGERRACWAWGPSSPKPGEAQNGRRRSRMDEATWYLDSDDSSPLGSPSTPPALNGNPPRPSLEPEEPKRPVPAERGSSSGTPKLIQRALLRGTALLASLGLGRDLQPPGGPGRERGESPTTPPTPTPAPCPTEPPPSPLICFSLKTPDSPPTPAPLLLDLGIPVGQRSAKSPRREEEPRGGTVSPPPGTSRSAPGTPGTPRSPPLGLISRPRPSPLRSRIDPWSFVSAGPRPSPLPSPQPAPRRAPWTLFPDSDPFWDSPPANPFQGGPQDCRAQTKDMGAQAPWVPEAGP

CHEK2 = target: T22, CHEK2 (Homo sapiens, UniProt O96017); experiment: KinomeScan; format: binding; conditions: read-out: % control
T22 construct: purchased DiscoveRx KINOMEscan

CDK5 = target: T23, CDK5 (Homo sapiens, UniProt Q00535); experiment: KinomeScan; format: binding; conditions: read-out: % control
T23 construct: purchased DiscoveRx KINOMEscan

BRAF(V600E) = target: T24, BRAF(V600E) (Homo sapiens, UniProt P15056, V600E); experiment: KinomeScan; format: binding; conditions: read-out: % control
T24 construct: purchased DiscoveRx KINOMEscan

EGFR(E746-A750del) = target: T25, EGFR(E746-A750del) (Homo sapiens, UniProt P00533, DEL746-750); experiment: KinomeScan; format: binding; conditions: read-out: % control
T25 construct: purchased DiscoveRx KINOMEscan

MARK2 = target: T26, MARK2 (Homo sapiens, UniProt Q7KZI7); experiment: KinomeScan; format: binding; conditions: read-out: % control
T26 construct: purchased DiscoveRx KINOMEscan

SgK110 = target: T27, SgK110 (Homo sapiens, UniProt P0C264); experiment: KinomeScan; format: binding; conditions: read-out: % control
T27 construct: purchased DiscoveRx KINOMEscan
T27 sequence (P0C264 whole entry): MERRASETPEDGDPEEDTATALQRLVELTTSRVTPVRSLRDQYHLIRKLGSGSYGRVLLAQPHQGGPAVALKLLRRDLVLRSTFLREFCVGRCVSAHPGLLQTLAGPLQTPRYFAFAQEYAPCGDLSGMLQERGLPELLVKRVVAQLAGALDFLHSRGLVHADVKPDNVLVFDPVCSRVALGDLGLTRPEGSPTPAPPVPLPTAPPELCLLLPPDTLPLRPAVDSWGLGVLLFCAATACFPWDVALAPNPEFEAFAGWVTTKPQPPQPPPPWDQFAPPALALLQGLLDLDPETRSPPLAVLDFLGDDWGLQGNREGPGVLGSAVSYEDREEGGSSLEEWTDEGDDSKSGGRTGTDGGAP

[3] = target: RPS6KA4(Kin.Dom.2-C-terminal) (Homo sapiens, UniProt O75676); experiment: KinomeScan; format: binding; conditions: read-out: % control
RPS6KA4(Kin.Dom.2-C-terminal), sequence (O75676 372-772 limits assumed): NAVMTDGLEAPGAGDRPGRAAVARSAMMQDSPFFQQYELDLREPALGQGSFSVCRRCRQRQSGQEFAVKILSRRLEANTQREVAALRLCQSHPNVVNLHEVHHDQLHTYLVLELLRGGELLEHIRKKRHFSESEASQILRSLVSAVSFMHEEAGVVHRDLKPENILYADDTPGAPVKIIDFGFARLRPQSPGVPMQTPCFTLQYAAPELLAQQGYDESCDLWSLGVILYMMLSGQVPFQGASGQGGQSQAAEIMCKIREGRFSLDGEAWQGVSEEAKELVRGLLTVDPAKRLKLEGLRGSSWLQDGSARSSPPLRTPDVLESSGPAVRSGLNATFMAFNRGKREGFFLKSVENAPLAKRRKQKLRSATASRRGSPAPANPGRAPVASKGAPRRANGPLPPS

INSR = target: T28, INSR (Homo sapiens, UniProt P06213); experiment: KinomeScan; format: binding; conditions: read-out: % control
T28 construct: purchased DiscoveRx KINOMEscan

PLK1 = target: T29, PLK1 (Homo sapiens, UniProt P53350); experiment: KinomeScan; format: binding; conditions: read-out: % control
T29 construct: purchased DiscoveRx KINOMEscan

NEK4 = target: T30, NEK4 (Homo sapiens, UniProt P51957); experiment: KinomeScan; format: binding; conditions: read-out: % control
T30 construct: purchased DiscoveRx KINOMEscan

BRK = target: T31, BRK (Homo sapiens, UniProt Q13882); experiment: KinomeScan; format: binding; conditions: read-out: % control
T31 construct: purchased DiscoveRx KINOMEscan
T31 sequence (Q13882 whole entry): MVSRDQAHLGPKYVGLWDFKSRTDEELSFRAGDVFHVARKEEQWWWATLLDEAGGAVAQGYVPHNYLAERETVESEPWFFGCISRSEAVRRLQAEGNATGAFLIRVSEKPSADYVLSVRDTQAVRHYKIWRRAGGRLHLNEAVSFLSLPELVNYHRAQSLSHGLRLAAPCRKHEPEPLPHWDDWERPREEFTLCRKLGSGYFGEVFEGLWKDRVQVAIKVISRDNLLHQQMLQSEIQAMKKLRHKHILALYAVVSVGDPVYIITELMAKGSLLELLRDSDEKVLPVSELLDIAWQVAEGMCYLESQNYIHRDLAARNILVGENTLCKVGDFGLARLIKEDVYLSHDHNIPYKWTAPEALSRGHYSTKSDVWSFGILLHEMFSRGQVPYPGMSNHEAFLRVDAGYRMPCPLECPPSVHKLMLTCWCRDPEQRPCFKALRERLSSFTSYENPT

PIK3C2G = target: T32, PIK3C2G (Homo sapiens, UniProt O75747); experiment: KinomeScan; format: binding; conditions: read-out: % control
T32 construct: purchased DiscoveRx KINOMEscan
T32 sequence (O75747 whole entry): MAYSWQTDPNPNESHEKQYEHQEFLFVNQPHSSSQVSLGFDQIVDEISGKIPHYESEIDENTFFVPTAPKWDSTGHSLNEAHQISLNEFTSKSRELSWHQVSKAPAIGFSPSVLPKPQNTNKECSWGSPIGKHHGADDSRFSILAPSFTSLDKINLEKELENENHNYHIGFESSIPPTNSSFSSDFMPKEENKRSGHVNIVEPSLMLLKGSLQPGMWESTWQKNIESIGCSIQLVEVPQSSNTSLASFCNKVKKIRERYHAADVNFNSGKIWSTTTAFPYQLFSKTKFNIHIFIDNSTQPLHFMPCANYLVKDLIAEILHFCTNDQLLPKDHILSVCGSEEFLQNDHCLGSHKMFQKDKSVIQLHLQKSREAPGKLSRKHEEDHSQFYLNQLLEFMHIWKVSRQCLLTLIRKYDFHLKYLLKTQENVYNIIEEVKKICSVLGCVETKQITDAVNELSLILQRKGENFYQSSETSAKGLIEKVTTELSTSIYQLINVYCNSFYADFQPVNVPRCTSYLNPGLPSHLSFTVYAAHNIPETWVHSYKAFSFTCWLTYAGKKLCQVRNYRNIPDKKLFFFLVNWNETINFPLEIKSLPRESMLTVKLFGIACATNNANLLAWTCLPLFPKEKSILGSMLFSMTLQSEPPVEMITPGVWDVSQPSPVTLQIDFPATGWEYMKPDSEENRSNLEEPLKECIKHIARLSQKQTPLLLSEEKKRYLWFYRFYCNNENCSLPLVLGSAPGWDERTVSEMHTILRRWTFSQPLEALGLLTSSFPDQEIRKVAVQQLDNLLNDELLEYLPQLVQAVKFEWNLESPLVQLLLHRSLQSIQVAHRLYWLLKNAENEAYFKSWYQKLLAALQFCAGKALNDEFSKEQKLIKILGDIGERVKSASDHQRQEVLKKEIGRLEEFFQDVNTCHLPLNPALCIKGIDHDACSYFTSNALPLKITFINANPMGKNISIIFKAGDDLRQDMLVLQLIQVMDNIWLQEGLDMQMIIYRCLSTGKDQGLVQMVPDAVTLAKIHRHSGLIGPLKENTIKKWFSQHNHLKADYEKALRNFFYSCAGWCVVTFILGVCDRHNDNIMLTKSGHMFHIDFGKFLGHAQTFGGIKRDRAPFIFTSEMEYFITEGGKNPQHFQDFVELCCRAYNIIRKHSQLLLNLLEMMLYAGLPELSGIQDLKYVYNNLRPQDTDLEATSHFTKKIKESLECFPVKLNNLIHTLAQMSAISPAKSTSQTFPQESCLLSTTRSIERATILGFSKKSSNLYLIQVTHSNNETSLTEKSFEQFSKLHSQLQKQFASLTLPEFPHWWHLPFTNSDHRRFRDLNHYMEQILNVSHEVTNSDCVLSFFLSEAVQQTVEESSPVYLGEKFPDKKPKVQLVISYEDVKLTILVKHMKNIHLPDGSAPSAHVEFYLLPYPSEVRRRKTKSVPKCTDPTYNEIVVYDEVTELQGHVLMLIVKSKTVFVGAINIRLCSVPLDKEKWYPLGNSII

BMX = target: T33, BMX (Homo sapiens, UniProt P51813); experiment: KinomeScan; format: binding; conditions: read-out: % control
T33 construct: purchased Invitrogen (SelectScreen service)

BaF3-TEL-EGFR-L858R = experiment: Anti-proliferation, BaF3 isogenic cell lines (CellTiter-Glo); format: cell-based; conditions: Mus musculus, 72 hours, triplet testing
CDK2 = target: T34, CDK2 (Homo sapiens, UniProt P24941); experiment: KinomeScan; format: binding; conditions: read-out: % control
T34 construct: purchased DiscoveRx KINOMEscan

PIK3CA(C420R) = target: T35, PIK3CA(C420R) (Homo sapiens, UniProt P42336, C420R); experiment: KinomeScan; format: binding; conditions: read-out: % control
T35 construct: purchased DiscoveRx KINOMEscan

ROCK1 = target: T36, ROCK1 (Homo sapiens, UniProt Q13464); experiment: KinomeScan; format: binding; conditions: read-out: % control
T36 construct: purchased DiscoveRx KINOMEscan
T36 sequence (Q13464 whole entry): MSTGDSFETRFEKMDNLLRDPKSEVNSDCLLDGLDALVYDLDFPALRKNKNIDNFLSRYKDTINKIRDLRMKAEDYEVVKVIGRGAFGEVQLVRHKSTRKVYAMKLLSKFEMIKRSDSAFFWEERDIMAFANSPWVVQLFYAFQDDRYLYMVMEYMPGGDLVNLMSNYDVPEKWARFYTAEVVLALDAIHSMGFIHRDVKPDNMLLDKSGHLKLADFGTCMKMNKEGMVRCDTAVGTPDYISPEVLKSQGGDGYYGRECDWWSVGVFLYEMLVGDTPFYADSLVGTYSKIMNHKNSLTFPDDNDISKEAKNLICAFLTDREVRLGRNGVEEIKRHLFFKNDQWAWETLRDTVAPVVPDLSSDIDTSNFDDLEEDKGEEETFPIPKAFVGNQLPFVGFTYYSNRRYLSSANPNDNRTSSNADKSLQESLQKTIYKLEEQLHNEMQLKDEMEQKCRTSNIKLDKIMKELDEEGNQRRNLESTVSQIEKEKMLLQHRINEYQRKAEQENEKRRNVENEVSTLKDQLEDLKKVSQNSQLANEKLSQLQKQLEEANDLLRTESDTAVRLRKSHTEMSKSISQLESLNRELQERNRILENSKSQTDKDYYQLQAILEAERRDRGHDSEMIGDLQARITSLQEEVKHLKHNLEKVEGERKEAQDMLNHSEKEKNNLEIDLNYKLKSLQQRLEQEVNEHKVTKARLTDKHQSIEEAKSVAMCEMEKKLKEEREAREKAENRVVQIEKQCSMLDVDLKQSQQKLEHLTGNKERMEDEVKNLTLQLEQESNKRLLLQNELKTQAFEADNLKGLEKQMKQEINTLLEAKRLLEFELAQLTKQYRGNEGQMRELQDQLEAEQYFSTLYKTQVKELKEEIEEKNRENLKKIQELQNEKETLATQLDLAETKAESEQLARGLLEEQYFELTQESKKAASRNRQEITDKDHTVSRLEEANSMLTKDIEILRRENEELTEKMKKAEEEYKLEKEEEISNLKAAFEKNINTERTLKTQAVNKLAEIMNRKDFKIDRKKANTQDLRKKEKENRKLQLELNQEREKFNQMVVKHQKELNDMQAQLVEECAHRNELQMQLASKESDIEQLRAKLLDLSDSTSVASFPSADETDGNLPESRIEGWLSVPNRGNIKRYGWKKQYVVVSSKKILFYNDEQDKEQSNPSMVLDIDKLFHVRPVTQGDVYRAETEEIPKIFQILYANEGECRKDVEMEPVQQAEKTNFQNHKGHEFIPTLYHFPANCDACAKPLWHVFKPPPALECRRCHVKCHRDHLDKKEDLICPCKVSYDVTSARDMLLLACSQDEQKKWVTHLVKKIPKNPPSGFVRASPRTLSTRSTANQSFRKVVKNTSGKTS

FLT3 = target: T37, FLT3 (Homo sapiens, UniProt P36888); experiment: KinomeScan; format: binding; conditions: read-out: % control
T37 construct: purchased DiscoveRx KINOMEscan

PIM1 = target: T38, PIM1 (Homo sapiens, UniProt P11309); experiment: KinomeScan; format: binding; conditions: read-out: % control
T38 construct: purchased DiscoveRx KINOMEscan

C=CC(=O)N1CCC[C@@H](n2nc(-c3ccc(OCc4cccc(C)n4)c(Cl)c3)c3c(N)ncnc32)C1 [CHMFL-EGFR-26]
remaining binding at 1 µM (ACVRL1): 100% | remaining binding at 1 µM (ZAP70): 100% | EC50 [1]: 50 nM | remaining binding at 1 µM (PRKCQ): 57% | remaining binding at 1 µM (MEK3): 98% | remaining binding at 1 µM (MELK): 41% | remaining binding at 1 µM (FLT3(D835H)): 100% | GI50 (CHO): > 10000 nM | remaining binding at 1 µM (PAK1): 59% | remaining binding at 1 µM (SRMS): 11% | remaining binding at 1 µM (PIK3CD): 100% | remaining binding at 1 µM (MLK1): 99% | remaining binding at 1 µM (MYLK2): 100% | remaining binding at 1 µM (PIKFYVE): 75% | remaining binding at 1 µM (JNK2): 59% | remaining binding at 1 µM [2]: 98% | remaining binding at 1 µM (LRRK2(G2019S)): 100% | remaining binding at 1 µM (TAK1): 100% | remaining binding at 1 µM (RAF1): 97% | remaining binding at 1 µM (TRPM6): 100% | remaining binding at 1 µM (FRK): 96% | remaining binding at 1 µM (MINK): 29% | remaining binding at 1 µM (MLK3): 100% | remaining binding at 1 µM (CHEK2): 88% | remaining binding at 1 µM (CDK5): 100% | remaining binding at 1 µM (BRAF(V600E)): 62% | remaining binding at 1 µM (EGFR(E746-A750del)): 34% | remaining binding at 1 µM (MARK2): 95% | remaining binding at 1 µM (SgK110): 100% | remaining binding at 1 µM [3]: 100% | remaining binding at 1 µM (INSR): 100% | remaining binding at 1 µM (PLK1): 100% | remaining binding at 1 µM (NEK4): 100% | remaining binding at 1 µM (BRK): 26% | remaining binding at 1 µM (PIK3C2G): 100% | remaining binding at 1 µM (BMX): 27% | GI50 (BaF3-TEL-EGFR-L858R): < 0.3 nM | remaining binding at 1 µM (CDK2): 100% | remaining binding at 1 µM (PIK3CA(C420R)): 100% | remaining binding at 1 µM (ROCK1): 100% | remaining binding at 1 µM (FLT3): 95% | remaining binding at 1 µM (PIM1): 97%
